Test results taken from patent US4399136A, “Pyrazolopyridazine antihypertensives” (Hoffmann-La Roche Inc., priority 1980, dated 1983).

biological target: T1, angiotensin converting enzyme, extracted from rabbit lung (Oryctolagus cuniculus, UniProt P12822); assay: in vitro inhibition of angiotensin converting enzyme (cleavage of hippuryl-histidyl-leucine); type: biochemical; conditions: hippuryl-histidyl-leucine 2 mM; rabbit lung ACE; pH 8.3; 25 minutes at 37° C.
T1 construct: extracted from rabbit lung; from tissue; host or cells: rabbit lung
T1 sequence (P12822 34-1310): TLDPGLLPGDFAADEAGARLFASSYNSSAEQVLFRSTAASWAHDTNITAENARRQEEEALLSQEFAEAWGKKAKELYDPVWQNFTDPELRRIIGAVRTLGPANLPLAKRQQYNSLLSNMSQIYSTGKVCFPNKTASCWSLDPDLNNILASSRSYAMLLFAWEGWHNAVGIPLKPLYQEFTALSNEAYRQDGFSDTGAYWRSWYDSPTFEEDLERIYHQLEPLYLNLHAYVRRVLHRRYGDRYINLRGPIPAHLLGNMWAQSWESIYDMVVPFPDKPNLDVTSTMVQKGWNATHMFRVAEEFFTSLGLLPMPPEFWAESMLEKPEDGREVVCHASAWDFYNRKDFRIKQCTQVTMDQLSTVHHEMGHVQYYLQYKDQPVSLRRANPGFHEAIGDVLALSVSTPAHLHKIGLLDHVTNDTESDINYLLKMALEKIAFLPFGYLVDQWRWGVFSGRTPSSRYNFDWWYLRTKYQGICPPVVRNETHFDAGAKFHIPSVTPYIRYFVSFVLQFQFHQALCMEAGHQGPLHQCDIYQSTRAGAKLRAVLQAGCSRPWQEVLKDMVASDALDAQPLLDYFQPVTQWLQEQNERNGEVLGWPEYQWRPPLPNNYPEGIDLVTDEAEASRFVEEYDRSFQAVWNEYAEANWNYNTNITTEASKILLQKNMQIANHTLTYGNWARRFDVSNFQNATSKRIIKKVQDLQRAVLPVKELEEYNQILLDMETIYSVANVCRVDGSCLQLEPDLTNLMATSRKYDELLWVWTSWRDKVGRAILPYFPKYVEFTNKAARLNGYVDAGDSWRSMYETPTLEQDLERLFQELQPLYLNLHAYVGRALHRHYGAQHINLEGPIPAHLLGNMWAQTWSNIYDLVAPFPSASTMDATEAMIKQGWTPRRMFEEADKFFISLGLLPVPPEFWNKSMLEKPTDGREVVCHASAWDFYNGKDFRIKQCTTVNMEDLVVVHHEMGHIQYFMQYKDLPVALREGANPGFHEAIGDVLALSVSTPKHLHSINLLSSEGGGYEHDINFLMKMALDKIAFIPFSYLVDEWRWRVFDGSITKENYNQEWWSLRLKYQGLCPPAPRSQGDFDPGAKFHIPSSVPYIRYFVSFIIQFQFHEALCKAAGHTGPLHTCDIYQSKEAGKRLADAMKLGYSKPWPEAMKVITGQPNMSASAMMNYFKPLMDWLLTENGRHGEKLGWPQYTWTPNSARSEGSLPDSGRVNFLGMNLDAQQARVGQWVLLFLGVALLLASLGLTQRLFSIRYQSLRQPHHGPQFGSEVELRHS
Description: The activity of the pyrazolopyridazine derivatives of formula I in inhibiting angiotensin converting enzyme in vitro can be determined by the following test.
The method used is based on the method of Cushman and Cheung (Biochem. Pharmacol., 20, 1637-1648) incorporating the modifications introduced by Hayakari et al. (Anal. Biochem., 84, 361-369). The substrate (hippuryl-histidyl-leucine, 2 mM) is incubated with angiotensin converting enzyme, extracted from rabbit lung, in the presence or absence of various concentrations of test substance in potassium phosphate buffer (pH 8.3; 100 mM) containing sodium chloride (300 mM) for 25 minutes at 37° C. (total […] 500 μl). The reaction is terminated by the addition of 3 ml of potassium phosphate buffer (pH 8.3; 200 mM) at 0° C. 2,4,6-Trichloro-s-triazine (3%) in 1.5 ml of dioxane is added and the mixture is agitated until the yellow chromophore has developed fully. The samples are then centrifuged to remove any precipitate which has formed. The yellow chromophore formed by the reaction of the 2,4,6-trichloro-s-triazine with free hippuric acid is measured spectrophotometrically at 382 nm. IC50 values are defined as the concentration of test substance which reduces by 50% the cleavage of hippurly-histidyl-leucine by angiotensin converting enzyme under the aforementioned conditions.

IC50 [nM] | SMILES
43 | CCC1(CCS)C(=O)N2CC=CC(C(=O)O)N2C1=O (stereo not drawn) [Compound C, 2-Ethyl-2,3,5,8-tetrahydro-2-(2-mercaptoethyl)-1,3-dioxo-1H-pyrazolo-[1,2-a]pyridazine-5-carboxylic acid]
100 | CC1(CCS)CN2CCCC(C(=O)O)N2C1=O (stereo not drawn) [Compound B, Hexahydro-2-(2-mercaptoethyl)-2-methyl-3-oxo-1H-pyrazolo[1,2-a]pyridazine-5-carboxylic acid]
100 | CC1(CCS)C(=O)N2CCCC(C(=O)O)N2C1=O (stereo not drawn) [Compound A, Hexahydro-2-(2-mercaptoethyl)-2-methyl-1,3-dioxo-1H-pyrazolo[1,2-a]pyridazine-5-carboxylic acid]
